Activity calls are given as the source filed them.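 Rule for the calls: active = EC50 at or below 10 micromolar; inactive = EC50 above 10 micromolar.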

Among the data in PubChem BioAssay AID613 (The Scripps Research Institute Molecular Screening Center, 2007) are EC50 values, retold here.

The target of this experiment is 5-hydroxytryptamine receptor 1A (Homo sapiens) (UniProt P08908). The experiment in a line: EC50 of serotonin HTR1A agonism – cell-based, CHO, Ga15 NFAT-bla reporter, dose response (AID 613). Conditions: CHO 5-HT1a Ga15 NFAT-bla reporter, agonist FRET.
Chain of 5-hydroxytryptamine receptor 1A (Homo sapiens) (P08908 whole entry, looked up): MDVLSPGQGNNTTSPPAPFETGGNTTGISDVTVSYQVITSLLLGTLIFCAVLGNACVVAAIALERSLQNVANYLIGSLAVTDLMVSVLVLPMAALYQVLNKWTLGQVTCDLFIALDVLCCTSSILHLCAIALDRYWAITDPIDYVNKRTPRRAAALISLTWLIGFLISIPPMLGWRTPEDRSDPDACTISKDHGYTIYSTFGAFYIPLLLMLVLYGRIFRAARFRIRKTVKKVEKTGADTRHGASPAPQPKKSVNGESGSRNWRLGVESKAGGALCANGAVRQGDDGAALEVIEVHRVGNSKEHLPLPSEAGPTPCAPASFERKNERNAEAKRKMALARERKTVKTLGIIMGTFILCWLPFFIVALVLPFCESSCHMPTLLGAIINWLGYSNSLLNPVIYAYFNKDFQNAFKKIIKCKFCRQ
In the case of `COc1ccccc1N=c1oc2cc(O)ccc2cc1C(N)=O`, the EC50 entry was “inactive”. In the case of `NC(=O)c1cc2ccc(O)cc2oc1=Nc1ccccc1`, the EC50 result was “inactive”.

As for `NC(=O)c1cc2ccc(O)cc2oc1=NCc1ccccc1`, the EC50 entry is “inactive”. As to `COc1ccc(N=c2oc3cc(O)ccc3cc2C(=O)NCC2CCCO2)c(OC)c1` (stereo unspecified), the EC50 is > 99 µM (inactive). For `Cc1cccc(N=c2oc3cc(O)ccc3cc2C(N)=O)c1` the value was “inactive”; for `CCCCCCc1cc2cc(-c3nnc(-c4ccccc4O)o3)c(=O)oc2cc1O`, > 99 µM (inactive). As to `C=CCOc1cccc(C2C(C(=O)c3ccco3)=C(O)C(=O)N2CCN(CC)CC)c1` (stereo unspecified), the EC50 is > 99 µM (inactive). `Cc1noc(NS(=O)(=O)c2ccc(N3CC(O)=C(c4ccccc4)C3=N)cc2)c1C`: the EC50 is > 99 µM (inactive). The result for `CN(C)CCCN1C(=O)C(=O)/C(=C(/O)c2ccc3c(c2)OCCO3)C1c1ccccn1` (stereo unspecified) reads > 99 µM (inactive); that for `CCCCOc1ccc(C2C3CN(C(=O)OCC)CC=C3C(C#N)=C(N)C2(C#N)C#N)cc1OC` (stereo unspecified), > 99 µM (inactive); that for `COc1ccccc1N=c1oc2cc(O)ccc2cc1C(=O)NCC1CCCO1` (stereo unspecified), “inactive”.

Take `N#C/C(=C(/O)COC(=O)Cc1c[nH]c2ccccc12)c1nc2ccccc2[nH]1`: the EC50 is > 99 µM (inactive). `COc1ccc(N=c2oc3cc(O)ccc3cc2C(=O)NCC2CCCO2)cc1` (stereo unspecified): the EC50 is > 99 µM (inactive). For `COc1ccc(OC)c(N=c2oc3cc(O)ccc3cc2C(N)=O)c1` the value was > 99 µM (inactive); for `Cc1ccc(N2C(=O)CC(N3CCN(C4CCc5ccccc5C4)CC3)C2=O)cc1` (stereo unspecified), > 99 µM (inactive). The result for `Cc1ccc(C2C3CN(C(C)C)CC=C3C(C#N)=C(N)C2(C#N)C#N)cc1` (stereo unspecified) reads “inactive”; that for `N#CC1=C(N)N(c2ccccc2)C(c2ccco2)C1(C#N)C#N` (stereo unspecified), > 99 µM (inactive).

Consider `CN(C)c1ccc(C2C=C(c3ccc(Cl)cc3OC(F)F)Nc3ncnn32)cc1` (stereo unspecified), for which the EC50 was > 99 µM (inactive). In the case of `CCCCCCc1cc2cc(C(=O)NC)c(=N)oc2cc1O`, the EC50 entry is “inactive”.

For `CCOC(=O)c1sc2c(c1C)C(c1cccs1)C1=C(CCCC1=O)N2` (stereo unspecified), the EC50 was > 33 µM (inactive). For the molecule `CCN(CC)c1ccc2cc(C(=O)Nc3ccccn3)c(=O)oc2c1`, the EC50 was > 99 µM (inactive). Regarding `CC(C)N1CC=C2C(C#N)=C(N)C(C#N)(C#N)C(c3ccccc3)C2C1` (stereo unspecified), the EC50 result is “inactive”. For `CCSCCOC(=O)C1=C(C)NC(=O)NC1c1ccc2c(c1)OCO2` (stereo unspecified) the value was > 99 µM (inactive); for `COCCOC(=O)C1=C(C)Nc2nc(C)nn2C1c1ccc(F)cc1` (stereo unspecified), > 99 µM (inactive). For `Nc1nonc1/C(=N/O)N1CCCC1` the value was > 99 µM (inactive); for `Cc1ccc(N=c2oc3cc(O)ccc3cc2C(N)=O)cc1`, “inactive”.

The term EC50 denotes the midpoint of the concentration-response curve.
